Test results taken from patent US20230157952A1, “METHOD FOR IMPROVING THE STABILITY OF A PHARMACEUTICAL COMPOSITION COMPRISING A HIGH PENETRATION DRUG, AND THE PHARMACEUTICAL COMPOSITION OBTAINED THEREFROM” (Techfields Inc., priority 2020, published 2023).

Legend:
[1] = Effect of temperature (and pH) on the stability of the solution (purity); assay type: physicochemical; settings: 7% solution in water
[2] = Effect of concentration on the stability of the solution (purity over time); settings: in water at 25° C.

For CCN(CC)CCOC(=O)CCc1nc(-c2ccccc2)c(-c2ccccc2)o1.Cl [2-(diethylamino)ethyl 4,5-diphenyl-2-oxazolepropionate•HCl], the “Stability of the solution at a temperature higher than 40° C. and a pH lower than 3 or greater than 6” value [1] was “not stable”, the “Purity at Day 3” value ([2]; 0.01 wt %) was 83.8% and the “Purity at Day 7” value ([2]; 0.01 wt %) was 73.9%. The “Purity at Day 14” value ([2]; 0.01 wt %) was 58.9%, the “Purity at Day 21” value ([2]; 0.01 wt %) was 47.6% and the “Purity at Day 28” value ([2]; 0.01 wt %) was 38.9%. For the same molecule, the “Purity at hr 0” value ([2]; 0.01 wt %) was 97.8%, the “Purity at Day 3” value ([2]; 0.1 wt %) was 94.7% and the “Purity at Day 7” value ([2]; 0.1 wt %) was 90.6%. For the same molecule, the “Purity at Day 14” value ([2]; 0.1 wt %) was 83.5%, the “Purity at Day 21” value ([2]; 0.1 wt %) was 75.7% and the “Purity at Day 28” value ([2]; 0.1 wt %) was 65.5%. For the same molecule, the “Purity at hr 0” value ([2]; 0.1 wt %) was 97.9%, the “Purity at Day 3” value ([2]; 1 wt %) was 95.3% and the “Purity at Day 7” value ([2]; 1 wt %) was 92.9%. The “Purity at Day 14” value ([2]; 1 wt %) was 88.9%, the “Purity at Day 21” value ([2]; 1 wt %) was 84.6% and the “Purity at Day 28” value ([2]; 1 wt %) was 79.2%. The “Purity at hr 0” value ([2]; 1 wt %) was 98.0%, the “Purity at Day 3” value ([2]; 3 wt %) was 96.3% and the “Purity at Day 7” value ([2]; 3 wt %) was 95.1%. The “Purity at Day 14” value ([2]; 3 wt %) was 92.5%, the “Purity at Day 21” value ([2]; 3 wt %) was 89.0% and the “Purity at Day 28” value ([2]; 3 wt %) was 85.7%. For the same molecule, the “Purity at hr 0” value ([2]; 3 wt %) was 98.4%, the “Purity at Day 3” value ([2]; 5 wt %) was 98.2% and the “Purity at Day 7” value ([2]; 5 wt %) was 97.8%. For the same molecule, the “Purity at Day 14” value ([2]; 5 wt %) was 97.0%, the “Purity at Day 21” value ([2]; 5 wt %) was 96.3% and the “Purity at Day 28” value ([2]; 5 wt %) was 95.0%. The “Purity at hr 0” value ([2]; 5 wt %) was 98.5%, the “Purity at Day 3” value ([2]; 7 wt %) was 98.6% and the “Purity at Day 7” value ([2]; 7 wt %) was 98.2%. For the same molecule, the “Purity at Day 14” value ([2]; 7 wt %) was 98.0%, the “Purity at Day 21” value ([2]; 7 wt %) was 97.7% and the “Purity at Day 28” value ([2]; 7 wt %) was 97.4%. The “Purity at hr 0” value ([2]; 7 wt %) was 98.8%, the “Purity at Day 3” value ([2]; 8 wt %) was 98.7% and the “Purity at Day 7” value ([2]; 8 wt %) was 98.3%. For the same molecule, the “Purity at Day 14” value ([2]; 8 wt %) was 97.9%, the “Purity at Day 21” value ([2]; 8 wt %) was 97.7% and the “Purity at Day 28” value ([2]; 8 wt %) was 97.5%. For the same molecule, the “Purity at hr 0” value ([2]; 8 wt %) was 98.7%, the “Purity at Day 3” value ([2]; 10 wt %) was 98.6% and the “Purity at Day 7” value ([2]; 10 wt %) was 98.5%. The “Purity at Day 14” value ([2]; 10 wt %) was 98.2%, the “Purity at Day 21” value ([2]; 10 wt %) was 97.8% and the “Purity at Day 28” value ([2]; 10 wt %) was 97.4%. For the same molecule, the “Purity at hr 0” value ([2]; 10 wt %) was 98.8%, the “Purity at Day 3” value ([2]; 15 wt %) was 98.7% and the “Purity at Day 7” value ([2]; 15 wt %) was 98.4%. The “Purity at Day 14” value ([2]; 15 wt %) was 98.1%, the “Purity at Day 21” value ([2]; 15 wt %) was 97.9% and the “Purity at Day 28” value ([2]; 15 wt %) was 97.5%. For the same molecule, the “Purity at hr 0” value ([2]; 15 wt %) was 98.8%, the “Purity at Day 3” value ([2]; 20 wt %) was 98.7% and the “Purity at Day 7” value ([2]; 20 wt %) was 98.5%. The “Purity at Day 14” value ([2]; 20 wt %) was 98.2%, the “Purity at Day 21” value ([2]; 20 wt %) was 97.8% and the “Purity at Day 28” value ([2]; 20 wt %) was 97.5%. For the same molecule, the “Purity at hr 0” value ([2]; 20 wt %) was 98.7%, the “Purity at Day 3” value ([2]; 30 wt %) was 98.7% and the “Purity at Day 7” value ([2]; 30 wt %) was 98.5%. The “Purity at Day 14” value ([2]; 30 wt %) was 98.3%, the “Purity at Day 21” value ([2]; 30 wt %) was 97.9% and the “Purity at Day 28” value ([2]; 30 wt %) was 97.6%. For the same molecule, the “Purity at hr 0” value ([2]; 30 wt %) was 98.8%, the “Purity at Day 3” value ([2]; 50 wt %) was 98.7% and the “Purity at Day 7” value ([2]; 50 wt %) was 98.5%. The “Purity at Day 14” value ([2]; 50 wt %) was 98.2%, the “Purity at Day 21” value ([2]; 50 wt %) was 97.8% and the “Purity at Day 28” value ([2]; 50 wt %) was 97.5%. The “Purity at hr 0” value ([2]; 50 wt %) was 98.8% and the “Stability when the concentration is 0.1% or lower” value [2] was “not stable”.
